We go through two molecules from patent US20130260365A1, “HIGHLY EFFICIENT PROCESS FOR PRODUCING BIOETHANOL” (HONDA MOTOR CO., LTD., priority 2012, published 2013).

Structures are written as SMILES.

The test system of assay [1] is fermentative microorganism cell (yeast). Briefly: microbe, parasite or virus in culture. Particulars: Saccharomyces cerevisiae, 24 h, read-out: Growth inhibition (%). How it is done: Sugar solutions to which acetic acid or formic acid was added were prepared for comparison with a reagent sugar solution containing no organic acid, and the fermentative microorganism cell of the same count was added to each sugar solution and cultured. At this time, the pHs of the reagent sugar solutions were adjusted to be the same. The absorbance of the microorganic counts was measured 24 hours later. Using the sugar solution to which acetic acid or formic acid was not added as the criterion, the degrees of growth inhibition are shown below.

The test system is the same in assay [2]. To be noted: for growth inhibition of fermentative microorganism cell: acetic acid 1000 or 500 mg/L, or formic acid 400 mg/L, added to reagent sugar solution, after 24 hours, compared with no organic acid added.
For assay [3], the system named is fermentative microorganism cell. Particulars: acetic acid added to give 17.79 mM vs sugar solution without acetic acid.
Description: A model experiment was subsequently carried out. After 72 hours from feeding a microorganism cell to a rice straw sugar solution at 50° C.

Regarding `CC(=O)O` [Acetic acid, acetic acid], in assay [1], the inhibition (commonly the change of the read-out against control, counted positive when it falls) at 5900 µM was 10.4%; the inhibition at 11900 µM came out at 28.8%; the inhibition at 17800 µM was 75.3%. Moreover, the “growth of the fermentative microorganism cell” value in assay [2] (3000 mg/L of acetic acid added to the reagent sugar solution) is recorded as “no growth”. Moreover, the “growth inhibition of fermentative microorganism cell” value in assay [2] was “growth inhibition of fermentative microorganism cell was observed”. For the same molecule, the “microorganic growth (absorbance)” value in assay [3] is given as “evidently poorer”.
Take `O=CO` [Formic acid, formic acid]: in assay [1], the inhibition at 10000 µM was 5.6%, the inhibition at 20000 µM stood at 61.1% and the inhibition at 30000 µM worked out at 71.4%. Besides, the “growth inhibition of fermentative microorganism cell” value in assay [2] is “growth inhibition of fermentative microorganism cell was observed”.
